Measured values reported in patent publication US20220175766A1, “COMPOSITIONS AND METHODS OF TREATMENT” (GB004, Inc., priority 2019, published 2022).
Converted amounts (≈) assume the structure as drawn. Where two headings read alike, the source gives them in different places.

Key:
[1] = tested on: hypoxia inducible factor (HIF)-inducible gene expression; assay: Phase 1a multiple ascending dose study: HIF-inducible gene expression in colonic mucosal biopsy samples; type: in vivo, human
Experimental: Colonic mucosal biopsy samples were also assessed for hypoxia inducible factor (HIF)-inducible gene expression. For Tier 1 association tests, two significant gene were detected (HMOX1, CA9).

[2] = Phase 1a multiple ascending dose study (oral solution): plasma pharmacokinetics; type: in vivo, human; details: for concentration at 0.5 h / concentration at 1 h / concentration at 2 h / concentration at 3 h / concentration at 4 h / concentration at 6 h / concentration at 8 h / concentration at 12 h / concentration at 16 h / concentration at 24 h / AUC(0-t) / Cmax / AUC / Tmax: human, plasma, oral; for concentration at 0.5 h: Hour 0.5; for concentration at 0.5 h / concentration at 1 h / concentration at 2 h / concentration at 3 h / concentration at 4 h / concentration at 6 h / concentration at 8 h / concentration at 12 h / concentration at 16 h / concentration at 24 h: read-out: Compound 1 concentration, Conc (SD); for concentration at 1 h: Hour 1; for concentration at 2 h: Hour 2; for concentration at 3 h: Hour 3; for concentration at 4 h: Hour 4; for concentration at 6 h: Hour 6; for concentration at 8 h: Hour 8; for concentration at 12 h: Hour 12; for concentration at 16 h: Hour 16; for concentration at 24 h: Hour 24; for AUC: read-out: AUC(0-τ), mean (SD); for Tmax: read-out: Tmax, median (range)
Experimental: Compound 1 was administered as the HCl-salt (prepared analogously to Example 2.1).
The secondary objective was to characterize the multiple dose pharmacokinetic (PK) parameters of Compound 1, after ascending doses. Secondary endpoints included determination of PK parameters in plasma and urine, fecal excretion and assessment of colonic biopsy samples.
Blood samples were collected at the following time points relative to dose administration on Day 1 and Day 7: pre-dose; 0.5, 1, 2, 3, 4, 6, 8, 12, 16 and 24 hours post dose. Analysis and concentration determinations were performed using a liquid chromatography-mass spectrometry and liquid chromatography-tandem mass spectrometry (LC/MS/MS) method.

[3] = Compound 1 pH-solubility at 22° C.; type: physicochemical; details: for solubility: aqueous buffer, thermodynamic from solid
From the text: The solubility of Compound 1 at various pH's was investigated.

[4] = Cohort 1, 60 mg once daily, Day 7
[5] = Cohort 2, 120 mg once daily, Day 7
[6] = Cohort 3, 240 mg once daily, Day 7
[7] = Cohort 4, 120 mg once daily, Day 7
[8] = Cohort 5, 60 mg once daily, Day 7
[9] = 60 mg, Cohort 1, 60 mg once daily, Day 7
[10] = 60 mg, Cohort 5, 60 mg once daily, Day 7
[11] = 120 mg, Cohort 2, 120 mg once daily, Day 7
[12] = 120 mg, Cohort 2, 120 mg, Day 1
[13] = 120 mg, Cohort 4, 120 mg once daily, Day 7
[14] = 120 mg, Cohort 4, 120 mg, Day 1
[15] = 240 mg, Cohort 3, 240 mg once daily, Day 7
[16] = 240 mg, Cohort 3, 240 mg, Day 1

## CC(C)(C)OC(=O)N1CCN(Cc2ccn(Cc3ccc(Cl)cc3)c(=O)c2O)CC1 [Compound 1, tert-butyl 4-((1-(4-chlorobenzyl)-3-hydroxy-2-oxo-1,2-dihydropyridin-4-yl)methyl)piperazine-1-carboxylate]
[1]; Tier 1 association tests
  Significant genes detected: HMOX1, CA9
[1]; Tier 2 analysis
  Significant genes detected: NDRG1, LCN2, BNIP3, TFF3, AKR1C3, BIRC3, TMEM45A and HILPDA
[2]; [4]
  ARAUC (accumulation ratio of AUC), mean: 2.1
  ARCmax (accumulation ratio of Cmax), mean: 1.0
[2]; Cohort 1, 60 mg, Day 1
  Tmax, median (range): 0.5 (0.5-1.0) h
[2]; [5]
  ARAUC (accumulation ratio of AUC), mean: 1.8
  ARCmax (accumulation ratio of Cmax), mean: 1.2
[2]; [6]
  ARAUC (accumulation ratio of AUC), mean: 1.4
  ARCmax (accumulation ratio of Cmax), mean: 1.0
[2]; [7]
  ARAUC (accumulation ratio of AUC), mean: 2.3
  ARCmax (accumulation ratio of Cmax), mean: 1.3
[2]; Cohort 4, 120 mg, Day 1
  Tmax, median (range): 0.5 (0.5-1.0) h
[2]; [8]
  ARAUC (accumulation ratio of AUC), mean: 3.0
  ARCmax (accumulation ratio of Cmax), mean: 1.3
[2]; [9]
  concentration at 0.5 h: 4.33 ng/mL
  concentration at 1 h: 3.02 ng/mL
  concentration at 2 h: 1.85 ng/mL
  concentration at 3 h: 0 ng/mL
  concentration at 4 h: 0 ng/mL
  concentration at 6 h: 0 ng/mL
  concentration at 8 h: 0 ng/mL
  concentration at 12 h: 0 ng/mL
  concentration at 16 h: 0 ng/mL
  concentration at 24 h: 0 ng/mL
[2]; 60 mg, Cohort 1, 60 mg once daily, Day 7, read-out: AUC(0-t), mean
  AUC(0-t): 17 ng·h/mL
[2]; 60 mg, Cohort 1, 60 mg once daily, Day 7, read-out: Cmax, mean
  Cmax: 4.33 ng/mL
[2]; 60 mg, Cohort 1, 60 mg, Day 1
  concentration at 0.5 h: 3.88 ng/mL
  concentration at 1 h: 3.16 ng/mL
  concentration at 4 h: 0 ng/mL
  concentration at 6 h: 0 ng/mL
  concentration at 8 h: 0 ng/mL
  concentration at 12 h: 0 ng/mL
  concentration at 16 h: 0 ng/mL
  concentration at 24 h: 0 ng/mL
[2]; 60 mg, Cohort 1, 60 mg, Day 1, read-out: AUC(0-τ) column, AUClast is presented (footnote b), mean (SD)
  AUC(0-t): 5.32 ng·h/mL
[2]; 60 mg, Cohort 1, 60 mg, Day 1, read-out: Cmax, mean (SD)
  Cmax: 4.11 ng/mL
[2]; [10]
  concentration at 0.5 h: 6.24 ng/mL
  concentration at 1 h: 4.6 ng/mL
  concentration at 2 h: 2.57 ng/mL
  concentration at 3 h: 1.99 ng/mL
  concentration at 4 h: 1.62 ng/mL
  concentration at 6 h: 2.15 ng/mL
  concentration at 8 h: 2 ng/mL
  concentration at 12 h: 1.7 ng/mL
  concentration at 16 h: 1.59 ng/mL
  concentration at 24 h: 1.18 ng/mL
[2]; 60 mg, Cohort 5, 60 mg once daily, Day 7, read-out: AUC(0-t), mean
  AUC(0-t): 53.2 ng·h/mL
[2]; 60 mg, Cohort 5, 60 mg once daily, Day 7, read-out: Cmax, mean
  Cmax: 6.31 ng/mL
[2]; 60 mg, Cohort 5, 60 mg, Day 1
  concentration at 0.5 h: 4.83 ng/mL
  concentration at 1 h: 3.94 ng/mL
  concentration at 3 h: 0 ng/mL
  concentration at 4 h: 0 ng/mL
  concentration at 6 h: 0 ng/mL
  concentration at 8 h: 0 ng/mL
  concentration at 12 h: 0 ng/mL
  concentration at 16 h: 0 ng/mL
  concentration at 24 h: 0 ng/mL
  AUC: 28.7 ng·h/mL
[2]; 60 mg, Cohort 5, 60 mg, Day 1, read-out: Cmax, mean (SD)
  Cmax: 5.06 ng/mL
[2]; [11]
  concentration at 0.5 h: 11.1 ng/mL
  concentration at 1 h: 7.7 ng/mL
  concentration at 2 h: 4.5 ng/mL
  concentration at 3 h: 3.19 ng/mL
  concentration at 4 h: 1.6 ng/mL
  concentration at 6 h: 2.04 ng/mL
  concentration at 8 h: 2.26 ng/mL
  concentration at 12 h: 1.41 ng/mL
  concentration at 16 h: 1.39 ng/mL
  concentration at 24 h: 0 ng/mL
[2]; 120 mg, Cohort 2, 120 mg once daily, Day 7, read-out: AUC(0-t), mean
  AUC(0-t): 48.2 ng·h/mL
[2]; 120 mg, Cohort 2, 120 mg once daily, Day 7, read-out: Cmax, mean
  Cmax: 11.4 ng/mL
[2]; [12]
  concentration at 0.5 h: 9.54 ng/mL
  concentration at 1 h: 6.08 ng/mL
  concentration at 3 h: 1.95 ng/mL
  concentration at 4 h: 0 ng/mL
  concentration at 6 h: 0 ng/mL
  concentration at 8 h: 0 ng/mL
  concentration at 12 h: 0 ng/mL
  concentration at 16 h: 0 ng/mL
  concentration at 24 h: 0 ng/mL
  AUC: 27.9 ng·h/mL
[2]; 120 mg, Cohort 2, 120 mg, Day 1, read-out: Cmax, mean (SD)
  Cmax: 9.54 ng/mL
[2]; [13]
  concentration at 0.5 h: 15.6 ng/mL
  concentration at 1 h: 9.34 ng/mL
  concentration at 2 h: 5.32 ng/mL
  concentration at 3 h: 3.69 ng/mL
  concentration at 4 h: 2.98 ng/mL
  concentration at 6 h: 3.3 ng/mL
  concentration at 8 h: 3.03 ng/mL
  concentration at 12 h: 2.59 ng/mL
  concentration at 16 h: 2.26 ng/mL
  concentration at 24 h: 1.92 ng/mL
[2]; 120 mg, Cohort 4, 120 mg once daily, Day 7, read-out: AUC(0-t), mean
  AUC(0-t): 75.8 ng·h/mL
[2]; 120 mg, Cohort 4, 120 mg once daily, Day 7, read-out: Cmax, mean
  Cmax: 15.6 ng/mL
[2]; [14]
  concentration at 0.5 h: 11.9 ng/mL
  concentration at 1 h: 8.03 ng/mL
  concentration at 3 h: 2.68 ng/mL
  concentration at 4 h: 1.48 ng/mL
  concentration at 6 h: 1.14 ng/mL
  concentration at 8 h: 0 ng/mL
  concentration at 12 h: 0 ng/mL
  concentration at 16 h: 0 ng/mL
  concentration at 24 h: 0 ng/mL
  AUC: 38.1 ng·h/mL
[2]; 120 mg, Cohort 4, 120 mg, Day 1, read-out: Cmax, mean (SD)
  Cmax: 12 ng/mL
[2]; [15]
  concentration at 0.5 h: 28.5 ng/mL
  concentration at 1 h: 20.5 ng/mL
  concentration at 2 h: 10.3 ng/mL
  concentration at 3 h: 7.61 ng/mL
  concentration at 4 h: 6.99 ng/mL
  concentration at 6 h: 6.8 ng/mL
  concentration at 8 h: 6.44 ng/mL
  concentration at 12 h: 4.66 ng/mL
  concentration at 16 h: 3.27 ng/mL
  concentration at 24 h: 2.53 ng/mL
[2]; 240 mg, Cohort 3, 240 mg once daily, Day 7, read-out: AUC(0-t), mean
  AUC(0-t): 139 ng·h/mL
[2]; 240 mg, Cohort 3, 240 mg once daily, Day 7, read-out: Cmax, mean
  Cmax: 28.8 ng/mL
[2]; [16]
  concentration at 0.5 h: 25.7 ng/mL
  concentration at 1 h: 15 ng/mL
  concentration at 3 h: 5.97 ng/mL
  concentration at 4 h: 4.12 ng/mL
  concentration at 6 h: 3.39 ng/mL
  concentration at 8 h: 3.02 ng/mL
  concentration at 12 h: 3.13 ng/mL
  concentration at 16 h: 2.25 ng/mL
  concentration at 24 h: 1.35 ng/mL
  AUC: 91.5 ng·h/mL
[2]; 240 mg, Cohort 3, 240 mg, Day 1, read-out: Cmax, mean (SD)
  Cmax: 25.7 ng/mL
[2]; Cohort 2, 120 mg, Day 1
  Tmax: 30 min
[2]; Cohort 3, 240 mg, Day 1
  Tmax: 30 min
[2]; Cohort 5, 60 mg, Day 1
  Tmax: 30 min
[3]; TRIS buffer, pH 8 (TRIS 25 mM, l = 0.1), pH 8.0, 22° C.
  solubility: 0.69 µg/mL (≈ 1.59 µM)
[3]; above pH 4
  Solubility (in words): practically insoluble
[3]; 0.1M NaOH, pH 12.6, 22° C.
  solubility: 890 µg/mL (≈ 2050 µM)
[3]; at pH 1
  Solubility (in words): soluble
[3]; at pH 6.8
  Solubility (in words): totally insoluble
[3]; citrate buffer, pH 3 (Citrate 25 mM, l = 0.1), pH 2.9, 22° C.
  solubility: 570 µg/mL (≈ 1310 µM)
[3]; citrate buffer, pH 4 (Citrate 25 mM, l = 0.1), pH 3.9, 22° C.
  solubility: 94 µg/mL (≈ 217 µM)
[3]; citrate buffer, pH 5 (Citrate 25 mM, l = 0.1), pH 5.0, 22° C.
  solubility: 9.8 µg/mL (≈ 22.6 µM)
[3]; glycine buffer, pH 10 (Glycine 25 mM, l = 0.1), pH 9.9, 22° C.
  solubility: 9.9 µg/mL (≈ 22.8 µM)
[3]; phosphate buffer, pH 6.5 (Phosphate 25 mM, l = 0.1), pH 6.5, 22° C.
  solubility: 1 µg/mL (≈ 2.3 µM)
